We go through 22 compounds from ChEMBL document CHEMBL5360532, “Current scenario of quinolone hybrids with potential antibacterial activity against ESKAPE pathogens” (Eur J Med Chem, 2023).

Holding throughout (assay type): functional
Experiment [1] has as its system Staphylococcus aureus. Description: Antibacterial activity against Staphylococcus aureus assessed as bacterial growth inhibition by broth microdilution assay. (Dilution methods test growth across graded concentrations, often in twofold steps.)
Experiment [2] concerns Escherichia coli. In words: Antibacterial activity against Escherichia coli assessed as bacterial growth inhibition by broth microdilution assay.
Experiment [3] has as its system Pseudomonas aeruginosa. In words: Antibacterial activity against Pseudomonas aeruginosa assessed as bacterial growth inhibition by broth microdilution assay.
The subject of experiment [4] is Escherichia coli. Description: Antibacterial activity against Escherichia coli assessed as bacterial growth inhibition by two fold microdilution assay.
Experiment [5] deals with Klebsiella pneumoniae. Description: Antibacterial activity against Klebsiella pneumoniae assessed as bacterial growth inhibition by two fold microdilution assay.
For experiment [6], the system named is Staphylococcus aureus. Description: Antibacterial activity against Staphylococcus aureus assessed as bacterial growth inhibition by two fold microdilution assay.
For experiment [7], the system named is Staphylococcus aureus. Description: Antibacterial activity against methicillin resistant Staphylococcus aureus ATCC 33591 assessed as bacterial growth inhibition measured after 16 to 18 hrs by serial dilution method. The settings on record: time 16-18 hrs.
For experiment [8], the system named is Enterococcus faecalis. In words: Antibacterial activity against Enterococcus faecalis assessed as bacterial growth inhibition by broth microdilution assay.
Experiment [9] concerns Escherichia coli. In words: Antibacterial activity against fluoroquinolone Escherichia coli assessed as bacterial growth inhibition by broth microdilution assay.
Experiment [10] concerns Escherichia coli. Description: Antibacterial activity against Escherichia coli ATCC 8739 assessed as bacterial growth inhibition by two fold microdilution assay.
Experiment [11] relates to Staphylococcus aureus. In words: Antibacterial activity against Staphylococcus aureus ATCC 6538P assessed as bacterial growth inhibition by two fold microdilution assay.
Experiment [12] has as its system Escherichia coli. In words: […] activity against Escherichia coli assessed as bacterial growth inhibition by broth dilution assay.
Experiment [13] relates to Escherichia coli. In words: Antibacterial activity against Escherichia coli ATCC 10536 assessed as bacterial growth inhibition measured after 24 to 48 hrs by agar dilution assay. The settings on record: time 24-48 hrs.
The test system of experiment [14] is Pseudomonas aeruginosa. In words: Antibacterial activity against Pseudomonas aeruginosa ATCC 11632 assessed as bacterial growth inhibition measured after 24 to 48 hrs by agar dilution assay. Particulars: time 24-48 hrs.
Experiment [15] deals with Escherichia coli. In words: Antibacterial activity against Escherichia coli assessed as bacterial growth inhibition by agar cup diffusion assay.
Experiment [16] has as its system Pseudomonas aeruginosa. Description: Antibacterial activity against Pseudomonas aeruginosa assessed as bacterial growth inhibition by agar cup diffusion assay.
Experiment [17] deals with Klebsiella pneumoniae. In words: Antibacterial activity against Klebsiella pneumoniae assessed as bacterial growth inhibition by agar cup diffusion assay.
The test system of experiment [18] is Staphylococcus aureus. In words: Antibacterial activity against Staphylococcus aureus assessed as bacterial growth inhibition by agar cup diffusion assay.
Experiment [19] relates to Staphylococcus aureus. Description: Potency index, ratio of ciprofloxacin MIC to test compound MIC for antimicrobial activity against Staphylococcus aureus assessed as bacterial growth inhibition by agar cup diffusion assay.
In experiment [20] the test system is Escherichia coli. In words: Potency index, ratio of ciprofloxacin MIC to test compound MIC for antimicrobial activity against Escherichia coli assessed as bacterial growth inhibition by agar cup diffusion assay.
In experiment [21] the test system is Staphylococcus aureus. Description: Antibacterial activity against Staphylococcus aureus ATCC 25923 assessed as bacterial growth inhibition measured after 18 hrs by agar dilution assay. In general terms: In agar dilution, organisms are placed on agar that contains the substance at set levels.
The test system of experiment [22] is Escherichia coli. Description: Antibacterial activity against Escherichia coli ATCC 25922 assessed as bacterial growth inhibition measured after 18 hrs by agar dilution assay.

The term MIC denotes the lowest concentration that inhibits growth of the organism.

SMILES strings stand for the structures. Converted amounts (≈) assume the structure as drawn. Bounds are passed on as bounds.

On to `CCn1cc(C(=O)O)c(=O)c2cc(F)c(N3CCN(Cn4nc(-c5ccncc5)oc4=S)CC3)cc21`, for which the MIC in experiment [1], in [2] and in [3] was at most 0.125 µg/mL each time.
In the case of `CCn1cc(C(=O)O)c(=O)c2cc(F)c(N3CCN(Cn4nc(Cn5nc(C)n(/N=C/c6ccccc6O)c5=O)n(-c5ccccc5)c4=S)CC3)cc21`, the figures for the MIC in experiment [4], in experiment [5] and in [6] were below 0.24 µg/mL, below 0.24 µg/mL and below 28 µg/mL, respectively.
As to `Cc1ccc(-c2ccnc(Nc3ccc4c(=O)c(C(=O)O)cn(C5CC5)c4c3)n2)cc1`, the MIC in [7] stood at 0.38 µg/mL (≈ 0.921 µM).
Turning to `CCCCCCOc1ccc(C2C(Cl)C(=O)N2c2cc3[nH]cc(C(=O)O)c(=O)c3cc2F)cc1` (centres undefined), the MIC in [1], in [2], in [8] and in [9] was 0.02 µg/mL (≈ 0.0411 µM) in each case.
Turning to `Cc1nn(Cc2nn(CN3CCN(c4cc5c(cc4F)c(=O)c(C(=O)O)cn5C4CC4)CC3)c(=O)n2-c2ccccc2)c(=O)n1/N=C/c1ccccc1O`, the MIC in [4] was below 0.24 µg/mL; in [5], below 0.24 µg/mL; in experiment [6], below 28 µg/mL.
In the case of `CCn1cc(C(=O)O)c(=O)c2cc(F)c(N3CCN(Cn4nc(-c5cccs5)n(-c5ccc(OC)cc5)c4=S)CC3)cc21`, the MIC in [5], in experiment [10] and in experiment [11] was at most 0.125 µg/mL throughout.
Turning to `CCCc1nn(CN2CCN(c3ncc4c(=O)c(C(=O)O)cn(CC)c4n3)CC2)c(=S)n1-c1cccc(OC)c1`, in experiment [12], the MIC was 0.98 µg/mL (≈ 1.74 µM).
For `Cc1nn(Cc2nn(CN3CCN(c4cc5c(cc4F)c(=O)c(C(=O)O)cn5C4CC4)CC3)c(=S)n2Cc2ccccc2)c(=O)n1/N=C/c1ccccc1O`, the MIC is below 0.24 µg/mL in experiment [4], below 0.24 µg/mL in experiment [5] and below 28 µg/mL in experiment [6].
As for `Cn1c(=O)c(C(=O)CNc2ccc(-c3nc4ccc(Cl)c(Cl)c4s3)cc2)c(O)c2ccccc21`, the MIC in experiment [13] and in experiment [14] was 0.5 µg/mL (≈ 0.98 µM) in each case.
`CCn1cc(C(=O)O)c(=O)c2cc(F)c(N3CCN(Cn4nc(Cn5nc(C)n(/N=C/c6ccccc6O)c5=O)n(Cc5ccccc5)c4=S)CC3)cc21`: the MIC in [4] is below 0.24 µg/mL; in experiment [5], below 0.24 µg/mL; in experiment [6], below 28 µg/mL.
For `Cc1nn(Cc2nn(CN3CCN(c4cc5c(cc4F)c(=O)c(C(=O)O)cn5C4CC4)CC3)c(=S)n2-c2ccccc2)c(=O)n1/N=C/c1ccccc1O`, the results for the minimal inhibitory concentration (MIC) in experiment [4], in experiment [5] and in experiment [6] were below 0.24 µg/mL, below 0.24 µg/mL and below 28 µg/mL, respectively.
Consider `Cc1ccc(Oc2ccnc(Nc3ccc4c(=O)c(C(=O)O)cn(C5CC5)c4c3)n2)cc1C`, for which, in [7], the MIC amounted to 0.38 µg/mL (≈ 0.859 µM).
Consider `CCn1cc(C(=O)O)c(=O)c2cc(F)c(N3CCN(Cn4nc(-c5ccccn5)n(-c5ccc(OC)cc5)c4=S)CC3)cc21`, for which the MIC in experiment [5], in [10] and in experiment [11] was at most 0.125 µg/mL in each case.
With `CCCCc1nn(CN2CCN(c3ncc4c(=O)c(C(=O)O)cn(CC)c4n3)CC2)c(=S)n1-c1cccc(OC)c1`, in [12], the MIC amounted to 0.98 µg/mL (≈ 1.69 µM).
Take `CCc1nn(CN2CCN(c3ncc4c(=O)c(C(=O)O)cn(CC)c4n3)CC2)c(=S)n1-c1cccc(OC)c1`: in experiment [12], the minimum inhibitory concentration (MIC) worked out at 0.98 µg/mL (≈ 1.78 µM).
With `C[C@@H](N)C(=O)N1CCN(c2cc3c(cc2F)c(=O)c(C(=O)N2CCOCC2)cn3C2CC2)CC1`, in [2], the MIC was 0.4 µg/mL (≈ 0.848 µM).
For `CCn1cc(C(=O)O)c(=O)c2cc(F)c(N3CCN(Cn4nc(-c5cccnc5)oc4=S)CC3)cc21`, the MIC in experiment [1], in experiment [2] and in [3] was at most 0.125 µg/mL throughout.
On to `O=C(CN1CCN(c2cc3c(cc2F)c(=O)c(C(=O)O)cn3C2CC2)CC1)Nc1nnc(-c2ccc(Cl)cc2)s1`, for which the MIC in experiment [15] stood at 1.12 µg/mL (≈ 1.92 µM); in experiment [16], 9.11 µg/mL (≈ 15.6 µM); in [17] it was 1.12 µg/mL (≈ 1.92 µM); in experiment [18] it was 1.12 µg/mL (≈ 1.92 µM). Moreover, the Ratio in experiment [19] and in experiment [20] was 4.6 each time.
With `CC1(C)S[C@@H]2[C@H](NC(=O)[C@H](N)c3ccccc3)C(=O)N2[C@H]1C(=O)O` [AMPICILLIN], the MIC in experiment [13] and in [14] was 0.5 µg/mL (≈ 1.43 µM) in each case.
Regarding `COc1c(N2CCNC(C)C2)c(F)cc2c(=O)c(C(=O)O)cn(C3CC3)c12` (centres undefined) [GATIFLOXACIN], the MIC turned out to be 0.25 µg/mL (≈ 0.666 µM) in [13]; 0.25 µg/mL (≈ 0.666 µM) in experiment [14]; 0.72 µg/mL (≈ 1.92 µM) in [1]; 0.66 µg/mL (≈ 1.76 µM) in experiment [2]; 0.47 µg/mL (≈ 1.25 µM) in [8]; 0.66 µg/mL (≈ 1.76 µM) in [9].
`C[C@H]1COc2c(N3CCN(C)CC3)c(F)cc3c(=O)c(C(=O)O)cn1c23` [LEVOFLOXACIN ANHYDROUS]: the MIC amounted to 0.66 µg/mL (≈ 1.83 µM) in experiment [1], 0.47 µg/mL (≈ 1.3 µM) in [2], 0.72 µg/mL (≈ 1.99 µM) in experiment [8] and 0.47 µg/mL (≈ 1.3 µM) in experiment [9].
In the case of `CCn1cc(C(=O)O)c(=O)c2cnc(N3CCNCC3)nc21` [PIPEMIDIC ACID], the MIC in experiment [21] and in experiment [22] was 19.5 µg/mL (≈ 64.3 µM) each time.
